The nature of data set [1]: Molar enthalpy of transition or fusion. To be noted: Crystal; DSC.
For data set [2] the following is noted: Crystal; DTA.

Numbers after ± are expanded uncertainties.

Consider `O=C(O)C(O)c1ccccc1Br` (stereo not given) [2-(2-bromophenyl)-2-hydroxyacetic acid], for which, in data set [1], the “Molar enthalpy of transition or fusion” value turned out to be 5.33 ± 0.311 kcal/mol. For the same compound, in data set [2], the Normal melting temperature came out at 86.8 ± 1 °C.
The corresponding values for `O=C(O)C(O)c1cccc(Br)c1` (stereo not given) [2-(3-bromophenyl)-2-hydroxyacetic acid] are 7.19 ± 0.311 kcal/mol and 119.6 ± 1 °C.
Taken in the same sequence, the figures for `O=C(O)C(O)c1ccc(Br)cc1` (stereo not given) [2-(4-bromophenyl)-2-hydroxyacetic acid] were 4.25 ± 0.311 kcal/mol and 118.1 ± 1 °C.
In the case of `O=C(O)C(O)c1ccc(Cl)cc1F` (stereo not given) [2-(4-chloro-2-fluorophenyl)-2-hydroxyacetic acid], the “Molar enthalpy of transition or fusion” value in data set [1] is 4.23 ± 0.311 kcal/mol. Besides, the Normal melting temperature in data set [2] came to 90.5 ± 1 °C.
Taken in the same sequence, the figures for `O=C(O)C(O)c1ccc(Cl)cc1` (stereo not given) [2-(4-chlorophenyl)-2-hydroxyacetic acid] were 3.87 ± 0.311 kcal/mol and 120.1 ± 1 °C.
The corresponding values for `O=C(O)C(O)c1ccc(F)cc1Cl` (stereo not given) [2-chloro-4-fluoromandelic acid] are 4.35 ± 0.311 kcal/mol and 97.6 ± 1 °C.
Turning to `O=C(O)C(O)c1ccccc1I` (stereo not given) [2-hydroxy-2-(2-iodophenyl)acetic acid], the “Molar enthalpy of transition or fusion” value in data set [1] came to 5.98 ± 0.311 kcal/mol. Also, in data set [2], the Normal melting temperature amounted to 109.0 ± 1 °C.
The corresponding values for `O=C(O)C(O)c1cccc(I)c1` (stereo not given) [2-hydroxy-2-(3-iodophenyl)acetic acid] are 5.88 ± 0.311 kcal/mol and 97.0 ± 1 °C.
Taken in the same sequence, the figures for `O=C(O)C(O)c1ccc(I)cc1` (stereo not given) [2-hydroxy-2-(4-iodophenyl)acetic acid] were 7.27 ± 0.311 kcal/mol and 142.2 ± 1 °C.
Regarding `Cc1cccc(C(O)C(=O)O)c1` (stereo not given) [2-hydroxy-2-(m-tolyl)acetic acid], the “Molar enthalpy of transition or fusion” value in data set [1] is 6.12 ± 0.311 kcal/mol. Besides, the Normal melting temperature in data set [2] was 92.4 ± 1 °C.
Consider `Cc1ccccc1C(O)C(=O)O` (stereo not given) [2-hydroxy-2-(o-tolyl)acetic acid], for which the “Molar enthalpy of transition or fusion” value in data set [1] was 5.14 ± 0.311 kcal/mol. In data set [2], the Normal melting temperature was 103.8 ± 1 °C.
The corresponding values for `Cc1ccc(C(O)C(=O)O)cc1` (stereo not given) [2-hydroxy-2-(p-tolyl)acetic acid] are 6.12 ± 0.311 kcal/mol and 143.8 ± 1 °C.
As for `O=C(O)[C@@H](O)c1ccccc1Br` [(S)-2-(2-bromophenyl)-2-hydroxyacetic acid], in data set [1], the “Molar enthalpy of transition or fusion” value is 5.35 ± 0.311 kcal/mol. Besides, the Normal melting temperature in data set [2] is 119.4 ± 1 °C.
For `O=C(O)[C@@H](O)c1ccc(F)cc1Cl` [(S)-2-(2-chloro-4-fluorophenyl)-2-hydroxyacetic acid], the “Molar enthalpy of transition or fusion” value in data set [1] is 4.8 ± 0.311 kcal/mol. Moreover, the Normal melting temperature in data set [2] came out at 132.8 ± 1 °C.
Taken in the same sequence, the figures for `O=C(O)[C@@H](O)c1cccc(Br)c1` [(S)-2-(3-bromophenyl)-2-hydroxyacetic acid] were 5.5 ± 0.311 kcal/mol and 103.1 ± 1 °C.
Taken in the same sequence, the figures for `O=C(O)[C@@H](O)c1ccc(Br)cc1` [(S)-2-(4-bromophenyl)-2-hydroxyacetic acid] were 4.11 ± 0.311 kcal/mol and 127.6 ± 1 °C.
`O=C(O)[C@@H](O)c1ccc(Cl)cc1F` [(S)-2-(4-chloro-2-fluorophenyl)-2-hydroxyacetic acid]: the “Molar enthalpy of transition or fusion” value in data set [1] was found to be 3.61 ± 0.287 kcal/mol. In addition, the Normal melting temperature in data set [2] turned out to be 107.8 ± 1 °C.
Take `O=C(O)[C@@H](O)c1ccc(Cl)cc1` [(S)-2-(4-chlorophenyl)-2-hydroxyacetic acid]: in data set [1], the “Molar enthalpy of transition or fusion” value was 6.48 ± 0.311 kcal/mol. Besides, the Normal melting temperature in data set [2] turned out to be 119.6 ± 1 °C.
`Cc1cccc([C@H](O)C(=O)O)c1` [(S)-2-hydroxy-2-(m-tolyl)acetic acid]: the “Molar enthalpy of transition or fusion” value in data set [1] amounted to 6.98 ± 0.311 kcal/mol. Further, the Normal melting temperature in data set [2] came to 109.7 ± 1 °C.
Take `Cc1ccc([C@H](O)C(=O)O)cc1` [(S)-2-hydroxy-2-(p-tolyl)acetic acid]: the “Molar enthalpy of transition or fusion” value in data set [1] came to 5.35 ± 0.311 kcal/mol. The Normal melting temperature in data set [2] was found to be 131.5 ± 1 °C.
